Measurements reported in patent publication US20250339531A1, “DUX4 POLYPEPTIDES AND NUCLEIC ACIDS FOR TREATING INFLAMMATORY AND AUTOIMMUNE CONDITIONS” (Fred Hutchinson Cancer Center, priority 2021, published 2025).
Entries after “also recorded” stand apart in the source; their conditions may differ.

Key:
[1] = test system: proteins that co-immunoprecipitated with DUX4-CTD constructs expressed in MB135 myoblasts; assay: LC-MS of proteins co-immunoprecipitated with DUX4-CTD (Table 1) and western validation; type: binding, human; conditions: LC-MS of co-IP; western validation with MB135-iDUXB as control; listed as DUX4-CTD
Excerpt: As an unbiased method to identify proteins that interact with the C-terminal region of DUX4, liquid chromatography mass spectroscopy (LC-MS) was used to identify proteins that co-immunoprecipitated with DUX4-CTD constructs expressed in MB135 myoblasts. In the first experiment, MB135iDUX4-CTD cells were used, either untreated, treated with doxycycline alone, or with both doxycycline and IFNG. In the second experiment, MB135iDUX4-CTD and MB135iDUX4mL1dL2 cells were used, both treated with doxycycline and IFNG, compared to these two cell lines untreated and combined as a control. Proteins with a minimum of 2 peptide spectrum matches (PSMs) in at least one sample that were identified in both experiments were assigned to one of ten categories (see Methods) to separate candidate interactors from other categories that might be co-purified because of obligate interactions (e.g., proteasome or ribosome) or might be less likely to be physiologically relevant (e.g., cytoskeletal proteins). Candidate interactors were then ranked based on the total PSMs for that protein across all samples.
Centrifugation at 2500 rcf at 4° C. for 5 min pelleted the nuclei, supernatant was discarded, and nuclei resuspended in 1 mL IP buffer pH 7.4 (25 mM Tris-HCl pH 7.5, 175 mM NaCl, 1 mM EDTA, 0.2% NP-40, 5% glycerol) and incubated for 1 hour at 4° C. with rotation then spun at 21000 rcf for 10 minutes at 4° C. to pellet insoluble debris. Protein concentration was determined using the Pierce BCA Protein Assay Kit (ThermoFisher, 23225). An equivalent amount of protein per sample was pre-cleared with Dynabeads Protein G (Invitrogen) bound to mouse IgG (Abcam #131368) for 1 hour at 4° C. with rotation. FLAG-tagged constructs were then immunoprecipitated with Dynabeads Protein G beads coupled to mouse anti-FLAG M2 mAb (Sigma F3165) for 3 hours at 4° C. with rotation. Beads were washed 3× with 1 mL IP buffer and eluted by adding 2× NuPage LDS Sample Buffer (Thermo Fisher, diluted from 4× with PBS) to the beads and heating for 10 minutes at 70° C.
For LC-MS, anti-FLAG immunoprecipitation was performed with beads cross-linked to the anti-FLAG antibody and the proteins competitively eluted with FLAG peptide. Eluted protein samples were electrophoresed into a NuPage 4-12% Bis-Tris gel, excised, and processed by the Fred Hutchinson Cancer Research Center Proteomics Core. Samples were reduced, alkylated, digested with trypsin, desalted, and run on the Orbitrap Eclipse Tribid Mass Spectrometer (Thermo Fisher). Proteomics data were analyzed using Proteome Discoverer 2.4 against a Uniprot human database that included common contaminants using Sequest HT and Percolator for scoring. […] Proteins that were identified in at least one sample from both independent experiments with at least 2 PSMs in one sample were assigned to one of ten categories: 1, candidates; 2, cytoskeletal associated; 3, cytoskeletal; 4, ribosome/translation associated; 5, proteasome associated; 6, membrane or extracellular; ER, golgi, or vesicle associated; 8, lipid metabolism; 9, chaperones; 10, nuclear import or nuclear membrane associated. The proteins in category 1 were further investigated for interactions with DUX4.

[2] = test system: in vitro translated STAT1; assay: In vitro translation and anti-FLAG immunoprecipitation; type: binding; conditions: rabbit reticulocyte lysate proteins, ± JAK1 kinase; listed as DUX4-CTD
Method: In vitro translated proteins were prepared using the TnT Quick Coupled Transcription Translation System (Promega, L2080) for the SP6 promoter on the pCS2-3×MYC-STAT1, pCS2-3×MYC-STAT1-S727E, pCS2-3×FLAG-DUX4aa154-424, and pCS2-3×FLAG-DUXB plasmids. To phosphorylate the 3×MYC-STAT1 and 3×MYC-STAT1-S727E proteins at Y701, 20 μL of the TnT reaction was mixed with 8 μL of 5× Kinase Buffer A (ThermoFisher, Cat #PV3189), 4 uL 10 mM ATP (ThermoFisher, Cat #PV3227), 0.4 ug recombinant JAK1 kinase (ThermoFisher, Cat #PV4774), and then nuclease-free ddH2O to a final volume of 40 μL and incubated for 1 hour at 30° C. The same procedure was used for treatment of 3×FLAG-DUX4-CTD with JAK1 kinase. For IPs, the in vitro translated proteins were mixed and incubated for 15 minutes in a 37° C. water bath. 0.3 mL of ice-cold in vitro IP buffer [20 mM Tris-HCl pH 7.5, 137 mM NaCl, 1 mM EDTA, 0.1% Tween20, 5% glycerol, adjusted to pH 7.4] was added to each sample and then 50 μL of Dynabeads Protein G bound to mouse IgG1 anti-FLAG [M2] (F3165) and incubated for 3 hours at 4° C. with gentle rotation. After immunoprecipitation of FLAG-tagged constructs, each sample was washed 3 times with 1 mL of ice-cold in vitro IP buffer in a 4° C. room. […]

Substance: longCTD: 3×FLAG tag and nls in frame with carboxyterminal 271 amino acids of DUX4 (aa154-424), SEQ ID NOS: 8-9
- candidate interacting proteins [1]: STAT1 and DDX3X, two key regulators of innate immune signaling, ranked at the top of the list; also recorded: validated the DUX4-CTD interactions with DDX3X, STAT1, PRKDC, YBX1, HNRNPM, PABPC1, NCL, CDK4, and HNRPU
- interaction with in vitro translated STAT1 [2]: did not interact with in vitro translated STAT1; also recorded: does not co-immunoprecipitate with in vitro translated/phosphorylated STAT1
